Key:
[1] = molecular target: Human CB1R (Cannabanoid receptor 1) (Homo sapiens (Human), UniProt P21554); assay: CB-1 in vitro cAMP (HTRF) assay in HEK-293 cells; type: cell-based; conditions: HEK-293 cells stably transfected with human CB1R, 250 nM Forskolin, mean where tested more than once, read-out: CB-1 (HEK_cAMP) EC50
Text: (§1) CB1 and CB2 receptors are Gi-coupled GPCR. Activation of CB1 and CB2 receptors results in a decrease in cAMP production. An inverse agonist of the CB1 or CB2 receptor results in the opposite effect, an increase of cAMP production. The principle of this assay is based on HTRF® technology (Homogeneous Time-Resolved Fluorescence). The method is a competitive immunoassay between native cAMP produced by cells and the cAMP labeled with the fluorophore d2. The tracer binding is quantified by a Mab anti-cAMP labeled with Eu3+TBP-NHS Cryptate (supplied as part of the assay kit). The specific signal (i.e. energy transfer) is inversely proportional to the concentration of cAMP in the standard or sample.
(§2) Human CB1R (Cannabanoid receptor 1) was stably transfected in HEK-293 cells (DiscoveRx, cat: 93-0200C1). Human CB2R (Cannabanoid receptor 2) was stably transfected in HEK-293 cells (DiscoveRx, cat: 93-0201C1). Cell cultures were maintained in media: DMEM (Invitrogen Cat#12430-054) supplemented with 10% HI FBS (Invitrogen Cat#16140-071), 1% L-glutamine (Invitrogen Cat#25030-081), 0.2 mg/ml Hygromycin B (Invitrogen Cat#10687-010), 600 μg/mL G418 (Invitrogen Cat#10131-035), and 1× Penn/Strep (Invitrogen 15140-122). After cell expansion, aliquots were cryo-stored in media containing 5% DMSO (Pierce Cat#20684).
(§3) One day prior to experiments media was warmed to 37° C. and the cryo-stored cells were thawed in a 37° C. water bath. The cells were then added to media (10× volume) and the mixture was centrifugated at 1000 RPM for 5 min. The supernate was removed and the cells were re-suspended in media. A sample of the cell suspension was evaluated on a Cedex XS automated cell counter (Innovatis Systems) to determine viable cells/ml. Additional media was added to the cells to achieve a final cell density of 4E5 cells/mL. The cells were then plated into 384 well PDL white solid bottom plates (Greiner, Cat#781945) at 20 μL per well using a Multidrop (Thermo Scientific). Cells were removed from Row P (location of cAMP standards). Two columns of cells were plated into a clear bottom 384 well PDL coated plate (Greiner, Cat#781944) to view confluence the day of the assay. The cell plates were lidded and stored for 15 minutes in a hood, then transferred to an incubator (37° C., 5% CO2, 95% humidity) overnight.
(§4) DMSO was added to all wells of 384 well V bottom polystyrene plate (Greiner, Cat#781280) except to columns 1 and 13, rows O and P and wells M13-M23 and N13-N23. Test compounds (60 μL, 10 mM) were added to Column 1 and 13 (A1 through N1 and A13 through L13). Test compounds were serially diluted 1/3 by transferring and mixing 20 μl sample with 40 μL DMSO.
(§5) DMSO (40 μL) was added to wells of 384 well V bottom polystyrene plate: O2 through O11, M14 through M23, N14 through N23, and O14 through 023. AM630 (also known as [6-iodo-2-methyl-1-[2-(4-morpholinyl)ethyl]-1H-indol-3-yl](4-methoxyphenyl)-methanone, Cayman Chemical, Cat#10006974) (60 μL, 10 mM) was added to 01; and 1-(2,4-dichlorophenyl)-7-[(4-fluorophenyl)methylene]-4,5,6,7-tetrahydro-N-1-piperidinyl-1H-indazole-3-carboxamide (60 μL, 10 mM) was added to N13. The control was serially diluted 1/3 by transferring and mixing 20 μl sample with 40 μL DMSO. This process resulted 11 doses per control, 10 mM to […].
(§6) Cells plated the day prior to the assay in clear bottom plates were viewed on an inverse microscope to ensure confluency in the range of 60-75%. […]

[2] = molecular target: Human CB2R (Cannabanoid receptor 2) (Homo sapiens (Human), UniProt P34972); assay: CB-2 in vitro cAMP (HTRF) assay in HEK-293 cells; type: cell-based; conditions: HEK-293 cells stably transfected with human CB2R, 250 nM Forskolin, mean where tested more than once, read-out: CB-2 (HEK_cAMP) EC50
Text: as §1, §2, §3, §4, §5, §6

Sequence of Human CB1R (Cannabanoid receptor 1) (P21554 whole entry): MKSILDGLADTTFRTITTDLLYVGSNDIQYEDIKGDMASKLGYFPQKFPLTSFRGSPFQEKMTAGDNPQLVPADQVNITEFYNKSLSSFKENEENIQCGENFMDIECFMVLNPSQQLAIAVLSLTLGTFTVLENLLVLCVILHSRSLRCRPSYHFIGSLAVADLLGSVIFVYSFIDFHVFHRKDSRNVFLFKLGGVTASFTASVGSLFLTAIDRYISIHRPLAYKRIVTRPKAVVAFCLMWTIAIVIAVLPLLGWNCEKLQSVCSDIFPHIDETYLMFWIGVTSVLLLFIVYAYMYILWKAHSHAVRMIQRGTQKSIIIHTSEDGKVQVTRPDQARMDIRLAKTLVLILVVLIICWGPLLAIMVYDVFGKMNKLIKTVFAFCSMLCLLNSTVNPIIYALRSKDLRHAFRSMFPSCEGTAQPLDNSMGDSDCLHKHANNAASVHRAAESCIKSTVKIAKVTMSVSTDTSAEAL
Sequence of Human CB2R (Cannabanoid receptor 2) (P34972 whole entry): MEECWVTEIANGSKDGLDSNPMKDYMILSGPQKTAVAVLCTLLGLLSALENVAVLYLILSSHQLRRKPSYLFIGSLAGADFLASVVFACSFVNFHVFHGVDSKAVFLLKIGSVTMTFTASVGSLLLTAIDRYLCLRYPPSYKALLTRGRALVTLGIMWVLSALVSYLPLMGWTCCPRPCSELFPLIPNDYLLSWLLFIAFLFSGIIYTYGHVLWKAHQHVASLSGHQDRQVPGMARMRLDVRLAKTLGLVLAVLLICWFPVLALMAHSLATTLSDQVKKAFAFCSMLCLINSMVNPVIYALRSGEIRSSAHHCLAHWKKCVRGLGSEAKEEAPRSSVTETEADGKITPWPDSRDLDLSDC

Row | EC50 [1] | EC50 [2] | SMILES
1 | 53 nM | > 10000 nM | O=C(O)Cc1ccc(N2CCC(c3c4cc(C(c5ccc(Cl)cc5)c5ccc(Cl)cc5)ccc4nn3C3CC3)CC2)cc1 [Compound 203]
2 | 4180 nM | > 10000 nM | O=C(O)COc1ccc(N2CCC(c3c4cc(C(c5ccc(Cl)cc5)c5ccc(Cl)cc5)ccc4nn3C3CC3)CC2)cc1 [Compound 196]
3 | 24 nM | > 10000 nM | O=S(=O)(N1CCC(c2nn(C3CC3)c3ccc(C(c4ccc(Cl)cc4)c4ccc(Cl)cc4)cc23)CC1)C(F)(F)F [Compound 275]
4 | 9200 nM | > 10000 nM | O=C(O)CCS(=O)(=O)N1CCC(c2nn(C3CC3)c3ccc(C(c4ccc(Cl)cc4)c4ccc(Cl)cc4)cc23)CC1 [Compound 106]
5 | 533 nM | > 10000 nM | NC(=O)c1ccccc1S(=O)(=O)N1CCC(c2nn(C3CC3)c3ccc(C(c4ccc(Cl)cc4)c4ccc(Cl)cc4)cc23)CC1 [Compound 93]
6 | 339 nM | > 10000 nM | O=C(O)c1ccc(S(=O)(=O)N2CCC(c3nn(C4CC4)c4ccc(C(c5ccc(Cl)cc5)c5ccc(Cl)cc5)cc34)CC2)cc1 [Compound 89]
7 | 26 nM | > 10000 nM | NC(=O)c1cccc(N2CCC(c3c4cc(C(c5ccc(Cl)cc5)c5ccc(Cl)cc5)ccc4nn3C3CC3)CC2)c1 [Compound 184, 3-(4-(5-(bis(4-chlorophenyl)methyl)-2-cyclopropyl-2H-indazol-3-yl)piperidin-1-yl)benzamide]
8 | 4 nM | 5200 nM | O=C(O)c1cc(S(=O)(=O)N2CCC(c3c4cc(C(c5ccc(Cl)cc5)c5ccc(Cl)cc5)ccc4nn3C3CC3)CC2)ccc1F [Compound 162, 5-(4-(5-(bis(4-chlorophenyl)methyl)-2-cyclopropyl-2H-indazol-3-yl)piperidin-1-ylsulfonyl)-2-fluorobenzoic acid]
9 | 428 nM | > 10000 nM | COc1ccccc1S(=O)(=O)N1CCC(Nc2n[nH]c3ccc(C(c4ccc(Cl)cc4)c4ccc(Cl)cc4)cc23)CC1 [Compound 100]
10 | 699 nM | > 10000 nM | NC(=O)Cc1ccc(N2CCC(c3n[nH]c4ccc(C(c5ccc(Cl)cc5)c5ccc(Cl)cc5)cc34)CC2)cc1 [Compound 223]
11 | 367 nM | > 10000 nM | O=C(O)c1ccc(N2CCC(c3n[nH]c4ccc(C(c5ccc(Cl)cc5)c5ccc(Cl)cc5)cc34)CC2)cc1 [Compound 213]
12 | 48 nM | > 10000 nM | NC(=O)c1ccc(N2CCC(c3c4cc(C(c5ccc(Cl)cc5)c5ccc(Cl)cc5)ccc4nn3C3CC3)CC2)cc1 [Compound 194, 4-(4-(5-(bis(4-chlorophenyl)methyl)-2-cyclopropyl-2H-indazol-3-yl)piperidin-1-yl)benzamide]
13 | 2150 nM | > 10000 nM | NS(=O)(=O)N1CCC(c2n[nH]c3ccc(C(c4ccc(Cl)cc4)c4ccc(Cl)cc4)cc23)CC1 [Compound 23]
14 | 23 nM | > 10000 nM | NC(=O)c1ccc(N2CCC(c3nn(C4CC4)c4ccc(C(c5ccc(Cl)cc5)c5ccc(Cl)cc5)cc34)CC2)cc1 [Compound 189]
15 | 5290 nM | > 10000 nM | O=C(O)COc1cccc(N2CCC(c3nn(C4CC4)c4ccc(C(c5ccc(Cl)cc5)c5ccc(Cl)cc5)cc34)CC2)c1 [Compound 191]
16 | 166 nM | > 10000 nM | O=C(O)CCC(=O)N1CCC(c2c3cc(C(c4ccc(Cl)cc4)c4ccc(Cl)cc4)ccc3nn2C2CC2)CC1 [Compound 135]

Row | EC50 [1] | EC50 [2] | SMILES
17 | 271 nM | 6820 nM | O=C(O)c1ccc(S(=O)(=O)N2CCC(c3n[nH]c4ccc(C(c5ccc(Cl)cc5)c5ccc(Cl)cc5)cc34)CC2)s1 [Compound 261]
18 | 84 nM | > 10000 nM | NC(=O)Cn1nc(N2CCN(S(=O)(=O)C(F)(F)F)CC2)c2cc(C(c3ccc(Cl)cc3)c3ccc(Cl)cc3)ccc21 [Compound 19]
19 | 499 nM | > 10000 nM | O=C(O)COCCn1nc(N2CCN(S(=O)(=O)C(F)(F)F)CC2)c2cc(C(c3ccc(Cl)cc3)c3ccc(Cl)cc3)ccc21 [Compound 52]
20 | 26 nM | > 10000 nM | NC(=O)c1ccc(S(=O)(=O)N2CCC(c3nn(CCO)c4ccc(C(c5ccc(Cl)cc5)c5ccc(Cl)cc5)cc34)CC2)cc1 [Compound 69]
21 | 9600 nM | > 10000 nM | O=C(O)c1ccc(S(=O)(=O)N2CCC(c3n[nH]c4ccc(C(c5ccc(Cl)cc5)c5ccc(Cl)cc5)cc34)C2)o1 (centres unmarked) [Compound 270]
22 | 50 nM | > 10000 nM | NC(=O)c1ccc(S(=O)(=O)N2CCC(Nc3n[nH]c4ccc(C(c5ccc(Cl)cc5)c5ccc(Cl)cc5)cc34)CC2)cc1 [Compound 120]
23 | 144 nM | > 10000 nM | CC(C)(C)OC(=O)N1CCC(c2n[nH]c3ccc(C(c4ccc(Cl)cc4)c4ccc(Cl)cc4)cc23)CC1 [Compound 39]
24 | 203 nM | > 10000 nM | O=C(O)c1ccc(S(=O)(=O)N2CCC(Nc3n[nH]c4ccc(C(c5ccc(Cl)cc5)c5ccc(Cl)cc5)cc34)CC2)cc1 [Compound 129]
25 | 3 nM | > 10000 nM | CNC(=O)c1cc(S(=O)(=O)N2CCC(c3c4cc(C(c5ccc(Cl)cc5)c5ccc(Cl)cc5)ccc4nn3C3CC3)CC2)ccc1OC [Compound 159, 5-(4-(5-(bis(4-chlorophenyl)methyl)-2-cyclopropyl-2H-indazol-3-yl)piperidin-1-ylsulfonyl)-2-methoxy-N-methylbenzamide]
26 | 6800 nM | > 10000 nM | O=C(O)c1cccc(S(=O)(=O)N2CCC(c3n[nH]c4ccc(C(c5ccc(Cl)cc5)c5ccc(Cl)cc5)cc34)C2)c1 (centres unmarked) [Compound 273]
27 | 5 nM | > 10000 nM | O=S(=O)(N1CCN(c2n[nH]c3ccc(C(c4ccc(Cl)cc4)c4ccc(Cl)cc4)cc23)CC1)C(F)(F)F [Compound 26]
28 | 49 nM | > 10000 nM | O=S(=O)(CC(F)(F)F)N1CCC(c2n[nH]c3ccc(C(c4ccc(Cl)cc4)c4ccc(Cl)cc4)cc23)CC1 [Compound 53]
29 | 2240 nM | > 10000 nM | NC(=O)c1ccccc1C(=O)N1CCC(c2nn(C3CC3)c3ccc(C(c4ccc(Cl)cc4)c4ccc(Cl)cc4)cc23)CC1 [Compound 96]
30 | 729 nM | > 10000 nM | O=C(O)CCS(=O)(=O)N1CCC(c2nn(C3CC3)c3ccc(C(c4ccc(Cl)cc4)c4ccc(Cl)cc4)cc23)CC1 [Compound 109]
31 | 4760 nM | > 10000 nM | O=C(O)CCC(=O)N1CCC(c2c3cc(C(c4ccc(Cl)cc4)c4ccc(Cl)cc4)ccc3nn2C2CC2)CC1 [Compound 127]

Row | SMILES | EC50 [1] | EC50 [2]
32 | O=C(O)c1ccc(CN2CCC(c3c4cc(C(c5ccc(Cl)cc5)c5ccc(Cl)cc5)ccc4nn3C3CC3)CC2)cc1 [Compound 256, 4-((4-(5-(bis(4-chlorophenyl)methyl)-2-cyclopropyl-2H-indazol-3-yl)piperidin-1-yl)methyl)benzoic acid] | 30 nM | > 10000 nM
33 | O=C(O)c1ccc(CN2CCC(c3c4cc(C(c5ccc(Cl)cc5)c5ccc(Cl)cc5)ccc4nn3C3CC3)CC2)s1 [Compound 242, 5-((4-(5-(bis(4-chlorophenyl)methyl)-2-cyclopropyl-2H-indazol-3-yl)piperidin-1-yl)methyl)thiophene-2-carboxylic acid] | 16 nM | > 10000 nM
34 | CCOC(=O)Cn1nc(C2CCN(S(=O)(=O)C(F)(F)F)CC2)c2cc(C(c3ccc(Cl)cc3)c3ccc(Cl)cc3)ccc21 [Compound 75] | 3920 nM | > 10000 nM

Reference: patent US9682940B2, “Indazole derivatives useful as CB-1 inverse agonists” (Janssen Pharmaceutica NV, priority 2015, dated 2017)
